The record followed here is patent US20090029996A1, “Pyridazin-3(2H)-One Derivatives And Their Use As Pde4 Inhibitors” (priority 2004, published 2009).

The assay addresses PDE4 (Homo sapiens, UniProt Q07343). Description: PDE4 Assay Procedure ([3H]-cAMP SPA). The class given is biochemical. The settings on record: 15 nM [3H]-cAMP, 1 hour at room temperature, SPA beads; read-out: HPDE4B or IC50 PDE4. As for the experimental part: Compounds to be tested were resuspended in DMSO at a stock concentration of 1 mM. […] These dilutions were done in 96-well plates. In some cases, plates containing diluted compounds were frozen before being assayed. In these cases, the plates were thawed at room temperature and stirred for 15 minutes.
Ten microliters of the diluted compounds were poured into a “low binding” assay plate. […] The reaction was initiated by adding ten microliters of a solution containing PDE4. The plate was then incubated under stirring for 1 hour at room temperature. After incubation the reaction was stopped with 50 microlitres of SPA beads, and the reaction was allowed to incubate for another 20 minutes at room temperature before measuring radioactivity using standard instrumentation.
The reaction mixture was prepared by adding 90 ml of H2O to 10 ml of 10× assay buffer (500 mM Tris pH 7.5, 83 mM MgCl2, 17 mM EGTA), and 40 microlitres 1 μCi/μL [3H]-cAMP. SPA beads solution was prepared by adding 500 mg to […] H2O for a final concentration of 20 mg/ml beads and 18 mM zinc sulphate.

Chain of PDE4 (Q07343 324-700 limits assumed): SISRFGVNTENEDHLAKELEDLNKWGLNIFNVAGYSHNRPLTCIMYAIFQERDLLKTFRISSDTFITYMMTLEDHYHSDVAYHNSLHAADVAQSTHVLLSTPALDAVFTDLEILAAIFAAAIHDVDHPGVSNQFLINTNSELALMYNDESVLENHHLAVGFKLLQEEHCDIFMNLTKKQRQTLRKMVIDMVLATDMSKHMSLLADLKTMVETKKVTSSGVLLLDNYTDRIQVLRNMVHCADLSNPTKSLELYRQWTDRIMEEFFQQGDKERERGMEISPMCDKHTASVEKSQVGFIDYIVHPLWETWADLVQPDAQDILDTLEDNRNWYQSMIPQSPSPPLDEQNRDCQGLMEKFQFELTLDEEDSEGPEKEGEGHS

As to `CCn1nc(-c2ccccc2)c(C(=O)OC(C)OC(=O)OC2CCCCC2)c(Nc2cccnc2)c1=O` (single isomer, unassigned; (-)) [Example 132, (−)-1-{[(Cyclohexyloxy)carbonyl]oxy}ethyl 1-ethyl-6-oxo-3-phenyl-5-(pyridin-3-ylamino)-1,6-dihydropyridazine-4-carboxylate], the IC50 amounted to 0.3 nM. To `CCn1nc(-c2ccccc2)c(C(=O)OCC(=O)OCc2ccccc2)c(Nc2cccnc2)c1=O` [Example 16, 2-(Benzyloxy)-2-oxoethyl 1-ethyl-6-oxo-3-phenyl-5-(pyridin-3-ylamino)-1,6-dihydropyridazine-4-carboxylate] belongs 0.22 nM; to `CCCC(=O)OCOC(=O)c1c(-c2ccccc2)nn(CC)c(=O)c1Nc1cccnc1` [Example 17, (Butyryloxy)methyl 1-ethyl-6-oxo-3-phenyl-5-(pyridin-3-ylamino)-1,6-dihydropyridazine-4-carboxylate], 3.6 nM. As for `CCn1nc(-c2ccccc2)c(C(=O)OC2OC(=O)c3ccccc32)c(Nc2cccnc2)c1=O` (stereo not drawn) [Example 18, 3-Oxo-1,3-dihydro-2-benzofuran-1-yl 1-ethyl-6-oxo-3-phenyl-5-(pyridin-3-ylamino)-1,6-dihydropyridazine-4-carboxylate], the figure is 2.1 nM.

Consider `CCn1nc(-c2ccccc2)c(C(=O)OCOC(C)=O)c(Nc2cccnc2)c1=O` [Example 19, (Acetyloxy)methyl 1-ethyl-6-oxo-3-phenyl-5-(pyridin-3-ylamino)-1,6-dihydropyridazine-4-carboxylate], for which the IC50 was 11 nM.

Take `CCn1nc(-c2ccccc2)c(C(=O)OCOC(=O)C(C)(C)C)c(Nc2cccnc2)c1=O` [Example 23, [(2,2-Dimethylpropanoyl)oxy]methyl 1-ethyl-6-oxo-3-phenyl-5-(pyridin-3-ylamino)-1,6-dihydropyridazine-4-carboxylate]: the IC50 came out at 0.94 nM.

With `CCn1nc(-c2ccccc2)c(C(=O)OCOC(=O)C(C)(C)C)c(Nc2cnccc2C)c1=O` [Example 26, [(2,2-dimethylpropanoyl)oxy]methyl 1-ethyl-5-[(4-methylpyridin-3-yl)amino]-6-oxo-3-phenyl-1,6-dihydropyridazine-4-carboxylate], the IC50 turned out to be 2.3 nM. To `CCOC(=O)OC(C)OC(=O)c1c(-c2ccccc2)nn(CC)c(=O)c1Nc1cnccc1C` (stereo not drawn) [Example 27, 1-[(Ethoxycarbonyl)oxy]ethyl 1-ethyl-5-[(4-methylpyridin-3-yl)amino]-6-oxo-3-phenyl-1,6-dihydropyridazine-4-carboxylate] belongs 9.1 nM; to `CCn1nc(-c2ccccc2)c(C(=O)OCOC(=O)C(C)(C)C)c(Nc2cncc3ccccc23)c1=O` [Example 31, [(2,2-Dimethylpropanoyl)oxy]methyl 1-ethyl-5-(isoquinolin-4-ylamino)-6-oxo-3-phenyl-1,6-dihydropyridazine-4-carboxylate], 0.07 nM; to `CCn1nc(-c2cccc(C)c2)c(C(=O)OCOC(=O)C(C)(C)C)c(Nc2cccnc2)c1=O` [Example 35, [(2,2-Dimethylpropanoyl)oxy]methyl 1-ethyl-3-(3-methylphenyl)-6-oxo-5-(pyridin-3-ylamino)-1,6-dihydropyridazine-4-carboxylate], 2.2 nM. As for `CCn1nc(-c2ccc(C)cc2)c(C(=O)OCOC(=O)C(C)(C)C)c(Nc2cccnc2)c1=O` [Example 68, [(2,2-Dimethylpropanoyl)oxy]methyl 1-ethyl-3-(4-methylphenyl)-6-oxo-5-(pyridin-3-ylamino)-1,6-dihydropyridazine-4-carboxylate], the figure is 5.7 nM. As for `CCn1nc(-c2ccccc2)c(C(=O)OC(C)OC(=O)OC2CCCCC2)c(Nc2cnccc2C)c1=O` (stereo not drawn) [Example 76, 1-{[(Cyclohexyloxy)carbonyl]oxy}ethyl 1-ethyl-5-[(4-methylpyridin-3-yl)amino]-6-oxo-3-phenyl-1,6-dihydropyridazine-4-carboxylate], the figure is 4.6 nM; as for `CCOC(=O)COC(=O)c1c(-c2ccsc2)nn(CC)c(=O)c1Nc1cnccc1C` [Example 122, 2-Ethoxy-2-oxoethyl 1-ethyl-5-[(4-methylpyridin-3-yl)amino]-6-oxo-3-(3-thienyl)-1,6-dihydropyridazine-4-carboxylate], 3.4 nM; as for `CCn1nc(-c2ccccc2)c(C(=O)OCc2oc(=O)oc2C)c(Nc2cnccc2C)c1=O` [Example 142, (5-Methyl-2-oxo-1,3-dioxol-4-yl)methyl 1-ethyl-5-[(4-methylpyridin-3-yl)amino]-6-oxo-3-phenyl-1,6-dihydropyridazine-4-carboxylate], 1.2 nM. Turning to `CCn1nc(-c2ccccc2)c(C(=O)OCCl)c(Nc2cncc3ccccc23)c1=O` [Example 164, Chloromethyl 1-ethyl-5-(isoquinolin-4-ylamino)-6-oxo-3-phenyl-1,6-dihydropyridazine-4-carboxylate], the IC50 came out at 0.1 nM.
